Test results from PubChem BioAssay (NCI).
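GI50 is the concentration that inhibits growth by half. TGI: total growth inhibition.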

Experiments:
Assay in all cases: inhibition of tumour cell growth, NCI panel, 384-well format
NCI-H460 NSCLC = test system: NCI-H460 NSCLC
U251 glioblastoma = test system: U251 glioblastoma
OVCAR-5 ovarian = test system: OVCAR-5 ovarian
HCC-2998 colon = test system: HCC-2998 colon
SNB-19 CNS = test system: SNB-19 CNS
HL-60(TB) leukemia = test system: HL-60(TB) leukemia
SN12C renal = test system: SN12C renal
OVCAR-8 ovarian = test system: OVCAR-8 ovarian
NCI-H522 lung = test system: NCI-H522 lung
SR leukemia = test system: SR leukemia
MDA-MB-468 breast = test system: MDA-MB-468 breast
K-562 leukemia = test system: K-562 leukemia
HCT-116 colon = test system: HCT-116 colon
TK-10 renal = test system: TK-10 renal
NCI/ADR-RES ovarian = test system: NCI/ADR-RES ovarian
NCI-H226 lung = test system: NCI-H226 lung
HCT-15 colon = test system: HCT-15 colon
A498 renal = test system: A498 renal
T-47D breast = test system: T-47D breast
SK-MEL-5 melanoma = test system: SK-MEL-5 melanoma
MDA-MB-231 breast = test system: MDA-MB-231 breast
COLO 205 colon = test system: COLO 205 colon
ACHN renal = test system: ACHN renal
786-0 renal = test system: 786-0 renal
SF-295 CNS = test system: SF-295 CNS
PC-3 prostate = test system: PC-3 prostate
HT29 colon = test system: HT29 colon
KM12 colon = test system: KM12 colon
RXF 393 renal = test system: RXF 393 renal
HOP-92 NSCLC = test system: HOP-92 NSCLC
SF-539 CNS = test system: SF-539 CNS
SK-MEL-2 melanoma = test system: SK-MEL-2 melanoma
UACC-62 melanoma = test system: UACC-62 melanoma
LOX IMVI melanoma = test system: LOX IMVI melanoma
MDA-MB-435 melanoma = test system: MDA-MB-435 melanoma
CAKI-1 renal = test system: CAKI-1 renal
SNB-75 CNS = test system: SNB-75 CNS
SF-268 CNS = test system: SF-268 CNS
DU-145 prostate = test system: DU-145 prostate
BT-549 breast = test system: BT-549 breast
SK-MEL-28 melanoma = test system: SK-MEL-28 melanoma
M14 melanoma = test system: M14 melanoma
OVCAR-4 ovarian = test system: OVCAR-4 ovarian
HOP-62 NSCLC = test system: HOP-62 NSCLC
MOLT-4 leukemia = test system: MOLT-4 leukemia
NCI-H23 lung = test system: NCI-H23 lung
NCI-H322M lung = test system: NCI-H322M lung
A549 NSCLC = test system: A549 NSCLC
IGROV1 ovarian = test system: IGROV1 ovarian
RPMI-8226 leukemia = test system: RPMI-8226 leukemia
UACC-257 melanoma = test system: UACC-257 melanoma
HS 578T breast = test system: HS 578T breast
EKVX NSCLC = test system: EKVX NSCLC
OVCAR-3 ovarian = test system: OVCAR-3 ovarian
MALME-3M melanoma = test system: MALME-3M melanoma
SK-OV-3 ovarian = test system: SK-OV-3 ovarian
CCRF-CEM leukemia = test system: CCRF-CEM leukemia
SW-620 colon = test system: SW-620 colon
MCF7 breast = test system: MCF7 breast

SMILES: Cc1cc(-c2ncc(CC(=O)Nc3ccc(-c4cnccn4)cn3)cc2C)ccn1
- GI50 (NCI-H460 NSCLC): 28.6 µM
- TGI (NCI-H460 NSCLC): > 100 µM
- GI50 (U251 glioblastoma): 48.6 µM
- TGI (U251 glioblastoma): > 100 µM
- GI50 (OVCAR-5 ovarian): > 100 µM
- TGI (OVCAR-5 ovarian): > 100 µM
- GI50 (HCC-2998 colon): > 88.8 µM
- TGI (HCC-2998 colon): > 100 µM
- GI50 (SNB-19 CNS): 64 µM
- TGI (SNB-19 CNS): > 100 µM
- GI50 (HL-60(TB) leukemia): 6.52 µM
- TGI (HL-60(TB) leukemia): 24.1 µM
- GI50 (SN12C renal): 39.2 µM
- TGI (SN12C renal): > 100 µM
- GI50 (OVCAR-8 ovarian): 30.3 µM
- TGI (OVCAR-8 ovarian): > 100 µM
- GI50 (NCI-H522 lung): 31.5 µM
- TGI (NCI-H522 lung): > 100 µM
- GI50 (SR leukemia): 3.81 µM
- TGI (SR leukemia): 27.9 µM
- GI50 (MDA-MB-468 breast): 3.43 µM
- TGI (MDA-MB-468 breast): 33.1 µM
- GI50 (K-562 leukemia): 10.4 µM
- TGI (K-562 leukemia): > 100 µM
- GI50 (HCT-116 colon): 29 µM
- TGI (HCT-116 colon): > 100 µM
- GI50 (TK-10 renal): 65.7 µM
- TGI (TK-10 renal): > 100 µM
- GI50 (NCI/ADR-RES ovarian): 14.4 µM
- TGI (NCI/ADR-RES ovarian): 47.3 µM
- GI50 (NCI-H226 lung): 61.6 µM
- TGI (NCI-H226 lung): > 100 µM
- GI50 (HCT-15 colon): 57.1 µM
- TGI (HCT-15 colon): > 100 µM
- GI50 (A498 renal): 68.8 µM
- TGI (A498 renal): > 100 µM
- GI50 (T-47D breast): 9.51 µM
- TGI (T-47D breast): > 52.8 µM
- GI50 (SK-MEL-5 melanoma): 11.6 µM
- TGI (SK-MEL-5 melanoma): 27.2 µM
- GI50 (MDA-MB-231 breast): > 100 µM
- TGI (MDA-MB-231 breast): > 100 µM
- GI50 (COLO 205 colon): > 93.6 µM
- TGI (COLO 205 colon): > 100 µM
- GI50 (ACHN renal): 64.4 µM
- TGI (ACHN renal): > 100 µM
- GI50 ([…]-0 renal): 59.5 µM
- TGI (786-0 renal): > 100 µM
- GI50 (SF-295 CNS): 49.3 µM
- TGI (SF-295 CNS): > 100 µM
- GI50 (PC-3 prostate): 51.1 µM
- TGI (PC-3 prostate): > 100 µM
- GI50 (HT29 colon): 74.5 µM
- TGI (HT29 colon): > 100 µM
- GI50 (KM12 colon): > 82.9 µM
- TGI (KM12 colon): > 100 µM
- GI50 (RXF 393 renal): 21.3 µM
- TGI (RXF 393 renal): > 100 µM
- GI50 (HOP-92 NSCLC): > 100 µM
- TGI (HOP-92 NSCLC): > 100 µM
- GI50 (SF-539 CNS): > 57.7 µM
- TGI (SF-539 CNS): > 100 µM
- GI50 (SK-MEL-2 melanoma): 42.6 µM
- TGI (SK-MEL-2 melanoma): > 100 µM
- GI50 (UACC-62 melanoma): 56.1 µM
- TGI (UACC-62 melanoma): > 100 µM
- GI50 (LOX IMVI melanoma): 28.4 µM
- TGI (LOX IMVI melanoma): > 100 µM
- GI50 (MDA-MB-435 melanoma): 38.6 µM
- TGI (MDA-MB-435 melanoma): > 100 µM
- GI50 (CAKI-1 renal): 49.3 µM
- TGI (CAKI-1 renal): > 100 µM
- GI50 (SNB-75 CNS): > 58.8 µM
- TGI (SNB-75 CNS): > 100 µM
- GI50 (SF-268 CNS): > 100 µM
- TGI (SF-268 CNS): > 100 µM
- GI50 (DU-145 prostate): > 100 µM
- TGI (DU-145 prostate): > 100 µM
- GI50 (BT-549 breast): 32.5 µM
- TGI (BT-549 breast): > 100 µM
- GI50 (SK-MEL-28 melanoma): > 100 µM
- TGI (SK-MEL-28 melanoma): > 100 µM
- GI50 (M14 melanoma): > 100 µM
- TGI (M14 melanoma): > 100 µM
- GI50 (OVCAR-4 ovarian): 25.5 µM
- TGI (OVCAR-4 ovarian): > 100 µM
- GI50 (HOP-62 NSCLC): 39.7 µM
- TGI (HOP-62 NSCLC): > 100 µM
- GI50 (MOLT-4 leukemia): 12.9 µM
- TGI (MOLT-4 leukemia): 26.2 µM
- GI50 (NCI-H23 lung): 20.5 µM
- TGI (NCI-H23 lung): > 100 µM
- GI50 (NCI-H322M lung): 43 µM
- TGI (NCI-H322M lung): > 100 µM
- GI50 (A549 NSCLC): > 70.5 µM
- TGI (A549 NSCLC): > 100 µM
- GI50 (IGROV1 ovarian): 56.3 µM
- TGI (IGROV1 ovarian): > 100 µM
- GI50 (RPMI-8226 leukemia): 13.8 µM
- TGI (RPMI-8226 leukemia): 34.7 µM
- GI50 (UACC-257 melanoma): 27.8 µM
- TGI (UACC-257 melanoma): > 100 µM
- GI50 (HS 578T breast): > 100 µM
- TGI (HS 578T breast): > 100 µM
- GI50 (EKVX NSCLC): 21.8 µM
- TGI (EKVX NSCLC): > 100 µM
- GI50 (OVCAR-3 ovarian): > 86.3 µM
- TGI (OVCAR-3 ovarian): > 100 µM
- GI50 (MALME-3M melanoma): > 100 µM
- TGI (MALME-3M melanoma): > 100 µM
- GI50 (SK-OV-3 ovarian): > 66 µM
- TGI (SK-OV-3 ovarian): > 100 µM
- GI50 (CCRF-CEM leukemia): 12.2 µM
- TGI (CCRF-CEM leukemia): 49 µM
- GI50 (SW-620 colon): 88.6 µM
- TGI (SW-620 colon): > 100 µM
- GI50 (MCF7 breast): 27.3 µM
- TGI (MCF7 breast): > 100 µM
